# Patent US10138255B2, “Piperazine derivatives as HIV protease inhibitors” (Merck Sharp & Dohme Corp., priority 2014, dated 2018)
# Test system: HIV-1 (H9IIIB strain)
# Assay: Cell-Based HIV Infection Assay Using a Reporter (MT4-GFP cells)
# Settings: Human immunodeficiency virus 1, inflection point (IP) of viral growth inhibition; MT4-GFP cells infected with HIV-1 H9IIIB; 50% normal human serum; mean of at least two independent experiments; read-out: Cell Based IP (50% NHS)
# Procedure, shortened: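 Inflection point from a 4-parameter curve of % viral growth inhibition, normalised to DMSO and triple-drug controls, using the 48 h/24 h ratio of GFP-positive cells (R0). MT4-GFP cells pre-infected 24 h with HIV-1 H9IIIB at low MOI; compounds tested in 50% normal human serum, 0.4% DMSO; mean of ≥2 experiments.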
row,Structure (SMILES),EC50 [nM]
1,"N[C@H](C(=O)Nc1cccc(F)c1CC[C@H]1CN[C@@H]2CCCS(=O)(=O)N1C2)[C@@H](c1ccc(Cl)cc1)c1csc(C(F)(F)F)n1 [Example 251, (βR)-4-chloro-N-(2-{2-[(6R,9S)-2,2-dioxido-2-thia-1,7-diazabicyclo[4.3.1]dec-9-yl]ethyl}-3-fluorophenyl)-β-[2-(trifluoromethyl)-1,3-thiazol-4-yl]-L-phenylalaninamide]",9.2
2,"COC(=O)N[C@H](C(=O)Nc1cccc(F)c1CC[C@H]1CN[C@@H]2CCCS(=O)(=O)N1C2)[C@@H](c1ccc(Cl)cc1)c1csc(C(F)(F)F)n1 [Example 252, methyl {(1S,2R)-2-(4-chlorophenyl)-1-[(2-{2-[(6R,9S)-2,2-dioxido-2-thia-1,7-diazabicyclo[4.3.1]dec-9-yl]ethyl}-3-fluorophenyl)carbamoyl]-2-[2-(trifluoromethyl)-1,3-thiazol-4-yl]ethyl}carbamate]",17
3,"CCO[C@H]1CC[C@H]([C@H](c2ccc(Cl)c(F)c2)[C@H](N)C(=O)Nc2cncc(F)c2CC[C@H]2CN[C@@H]3CCCS(=O)(=O)N2C3)CC1 [Example 253, (βR)-4-chloro-N-(4-{2-[(6R,9S)-2,2-dioxido-2-thia-1,7-diazabicyclo[4.3.1]dec-9-yl]ethyl}-5-fluoropyridin-3-yl)-β-[(1r,4R)-4-ethoxycyclohexyl]-3-fluoro-L-phenylalaninamide]",5.8
4,"COC[C@H]1CC[C@H]([C@H](c2ccc(Cl)cc2)[C@H](N)C(=O)Nc2cncc(F)c2CC[C@H]2CN[C@@H]3CCCS(=O)(=O)N2C3)CC1 [Example 254, (βR)-4-chloro-N-(4-{2-[(6R,9S)-2,2-dioxido-2-thia-1,7-diazabicyclo[4.3.1]dec-9-yl]ethyl}-5-fluoropyridin-3-yl)-β-[(1r,4R)-4-(methoxymethyl)cyclohexyl]-L-phenylalaninamide]",3
5,"CCOC(=O)N1CCC(c2ccc(Cl)cc2)([C@H](NC(=O)OC)C(=O)Nc2cccc(F)c2CC[C@H]2CN[C@@H]3CCCS(=O)(=O)N2C3)CC1 [Example 255, ethyl 4-(4-chlorophenyl)-4-{(1S)-2-[(2-{2-[(6R,9S)-2,2-dioxido-2-thia-1,7-diazabicyclo[4.3.1]dec-9-yl]ethyl}-3-fluorophenyl)amino]-1-[(methoxycarbonyl)amino]-2-oxoethyl}piperidine-1-carboxylate]",18
6,"COC(=O)N[C@H](C(=O)Nc1cncc(F)c1CC[C@H]1CN[C@@H]2CCCS(=O)(=O)N1C2)[C@@H](c1ccc(Cl)cc1)[C@H]1CC[C@H](C(F)(F)F)CC1 [Example 256, methyl {(1S,2R)-2-(4-chlorophenyl)-1-[(4-{2-[(6R,9S)-2,2-dioxido-2-thia-1,7-diazabicyclo[4.3.1]dec-9-yl]ethyl}-5-fluoropyridin-3-yl)carbamoyl]-2-[(1r,4R)-4-(trifluoromethyl)cyclohexyl]ethyl}carbamate]",8.2
7,"COC(=O)N[C@H](C(=O)Nc1cccc(F)c1CC[C@H]1CN[C@@H]2CCCS(=O)(=O)N1C2)[C@@H](c1ccc(Cl)cc1)[C@H]1CC[C@H](OC2CC2)CC1 [Example 257, methyl {(1S,2R)-2-(4-chlorophenyl)-2-[(1r,4R)-4-(cyclopropyloxy)cyclohexyl]-1-[(2-{2-[(6R,9S)-2,2-dioxido-2-thia-1,7-diazabicyclo[4.3.1]dec-9-yl]ethyl}-3-fluorophenyl)carbamoyl]ethyl}carbamate]",5.6
8,"CCOC[C@H]1CC[C@H]([C@H](c2ccc(Cl)cc2)[C@H](N)C(=O)Nc2cncc(F)c2CC[C@H]2CN[C@@H]3CCCS(=O)(=O)N2C3)CC1 [Example 258, (βR)-4-chloro-N-(4-{2-[(6R,9S)-2,2-dioxido-2-thia-1,7-diazabicyclo[4.3.1]dec-9-yl]ethyl}-5-fluoropyridin-3-yl)-β-[(1r,4R)-4-(ethoxymethyl)cyclohexyl]-L-phenylalaninamide]",3.4
9,"CC(C)Oc1cnc([C@H](c2ccc(Cl)cc2)[C@H](N)C(=O)Nc2cccc(F)c2CC[C@H]2CN[C@@H]3CCCS(=O)(=O)N2C3)cn1 [Example 259, (βR)-4-chloro-N-(2-{2-[(6R,9S)-2,2-dioxido-2-thia-1,7-diazabicyclo[4.3.1]dec-9-yl]ethyl}-3-fluorophenyl)-β-[5-(1-methylethoxy)pyrazin-2-yl]-L-phenylalaninamide]",4.2
10,"Cn1nc([C@H](c2ccc(Cl)cc2)[C@H](N)C(=O)Nc2cccc(F)c2CC[C@H]2CN[C@@H]3CCCS(=O)(=O)N2C3)cc1C(F)(F)F [Example 260, (βR)-4-chloro-N-(2-{2-[(6R,9S)-2,2-dioxido-2-thia-1,7-diazabicyclo[4.3.1]dec-9-yl]ethyl}-3-fluorophenyl)-β-[1-methyl-5-(trifluoromethyl)-1H-pyrazol-3-yl]-L-phenylalaninamide]",4.4
11,"Cn1nc(C(F)(F)F)cc1[C@H](c1ccc(Cl)cc1)[C@H](N)C(=O)Nc1cccc(F)c1CC[C@H]1CN[C@@H]2CCCS(=O)(=O)N1C2 [Example 261, (βR)-4-chloro-N-(2-{2-[(6R,9S)-2,2-dioxido-2-thia-1,7-diazabicyclo[4.3.1]dec-9-yl]ethyl}-3-fluorophenyl)-β-[1-methyl-3-(trifluoromethyl)-1H-pyrazol-5-yl]-L-phenylalaninamide]",8.7
12,"Cn1nc(C(F)(F)F)cc1[C@H](c1ccc(Cl)cc1)[C@H](N)C(=O)Nc1cncc(F)c1CC[C@H]1CN[C@@H]2CCCS(=O)(=O)N1C2 [Example 262, (βR)-4-chloro-N-(4-{2-[(6R,9S)-2,2-dioxido-2-thia-1,7-diazabicyclo[4.3.1]dec-9-yl]ethyl}-5-fluoropyridin-3-yl)-β-[1-methyl-3-(trifluoromethyl)-1H-pyrazol-5-yl]-L-phenylalaninamide]",22
13,"CC(C)Oc1cnc([C@H](c2ccc(Cl)cc2)[C@H](N)C(=O)Nc2cncc(F)c2CC[C@H]2CN[C@@H]3CCCS(=O)(=O)N2C3)cn1 [Example 263, (βR)-4-chloro-N-(4-{2-[(6R,9S)-2,2-dioxido-2-thia-1,7-diazabicyclo[4.3.1]dec-9-yl]ethyl}-5-fluoropyridin-3-yl)-β-[5-(1-methylethoxy)pyrazin-2-yl]-L-phenylalaninamide]",5.2
14,"N[C@H](C(=O)Nc1cccc(F)c1CC[C@H]1CN[C@@H]2CCCS(=O)(=O)N1C2)[C@@H](c1ccc(Cl)cc1)c1nc(C(F)(F)F)cs1 [Example 264, (βR)-4-chloro-N-(2-{2-[(6R,9S)-2,2-dioxido-2-thia-1,7-diazabicyclo[4.3.1]dec-9-yl]ethyl}-3-fluorophenyl)-β-[4-(trifluoromethyl)-1,3-thiazol-2-yl]-L-phenylalaninamide]",6.9
15,"Cn1nc([C@H](c2ccc(Cl)c(F)c2)[C@H](N)C(=O)Nc2cccc(F)c2CC[C@H]2CN[C@@H]3CCCS(=O)(=O)N2C3)cc1C(F)(F)F [Example 265, (βR)-4-chloro-N-(2-{2-[(6R,9S)-2,2-dioxido-2-thia-1,7-diazabicyclo[4.3.1]dec-9-yl]ethyl}-3-fluorophenyl)-3-fluoro-β-[1-methyl-5-(trifluoromethyl)-1H-pyrazol-3-yl]-L-phenylalaninamide]",9.8
16,"Cn1nc([C@H](c2ccc(Cl)c(F)c2)[C@H](N)C(=O)Nc2cncc(F)c2CC[C@H]2CN[C@@H]3CCCS(=O)(=O)N2C3)cc1C(F)(F)F [Example 266, (βR)-4-chloro-N-(4-{2-[(6R,9S)-2,2-dioxido-2-thia-1,7-diazabicyclo[4.3.1]dec-9-yl]ethyl}-5-fluoropyridin-3-yl)-3-fluoro-β-[1-methyl-5-(trifluoromethyl)-1H-pyrazol-3-yl]-L-phenylalaninamide]",11
17,"Cn1nc(C(F)(F)F)cc1[C@H](c1ccc(Cl)c(F)c1)[C@H](N)C(=O)Nc1cccc(F)c1CC[C@H]1CN[C@@H]2CCCS(=O)(=O)N1C2 [Example 267, (βR)-4-chloro-N-(2-{2-[(6R,9S)-2,2-dioxido-2-thia-1,7-diazabicyclo[4.3.1]dec-9-yl]ethyl}-3-fluorophenyl)-3-fluoro-β-[1-methyl-3-(trifluoromethyl)-1H-pyrazol-5-yl]-L-phenylalaninamide]",8
18,"Cn1nc(C(F)(F)F)cc1[C@H](c1ccc(Cl)c(F)c1)[C@H](N)C(=O)Nc1cncc(F)c1CC[C@H]1CN[C@@H]2CCCS(=O)(=O)N1C2 [Example 268, (βR)-4-chloro-N-(4-{2-[(6R,9S)-2,2-dioxido-2-thia-1,7-diazabicyclo[4.3.1]dec-9-yl]ethyl}-5-fluoropyridin-3-yl)-3-fluoro-β-[1-methyl-3-(trifluoromethyl)-1H-pyrazol-5-yl]-L-phenylalaninamide]",18
19,"N[C@H](C(=O)Nc1cncc(F)c1CC[C@H]1CN[C@@H]2CCCS(=O)(=O)N1C2)[C@@H](c1ccc(Cl)cc1)c1csc(C(F)(F)F)n1 [Example 269, (βR)-4-chloro-N-(4-{2-[(6R,9S)-2,2-dioxido-2-thia-1,7-diazabicyclo[4.3.1]dec-9-yl]ethyl}-5-fluoropyridin-3-yl)-β-[2-(trifluoromethyl)-1,3-thiazol-4-yl]-L-phenylalaninamide]",5
20,"COC(=O)N[C@H](C(=O)Nc1cccc(F)c1CC[C@H]1CN[C@@H]2CCCS(=O)(=O)N1C2)[C@@H](c1ccc(Cl)cc1)C1CCC(C)(C)OC1 (stereo partly drawn) [Example 271, methyl {(1S,2R)-2-(4-chlorophenyl)-2-(6,6-dimethyltetrahydro-2H-pyran-3-yl)-1-[(2-{2-[(6R,9S)-2,2-dioxido-2-thia-1,7-diazabicyclo[4.3.1]dec-9-yl]ethyl}-3-fluorophenyl)carbamoyl]ethyl}carbamate]",7
21,"N[C@H](C(=O)Nc1cncc(F)c1CC[C@H]1CN[C@@H]2CCCS(=O)(=O)N1C2)[C@@H](c1ccc(Cl)cc1)C1CCCC(F)(F)C1 (stereo partly drawn) [Example 272, (βR)-4-chloro-β-(3,3-difluorocyclohexyl)-N-(4-{2-[(6R,9S)-2,2-dioxido-2-thia-1,7-diazabicyclo[4.3.1]dec-9-yl]ethyl}-5-fluoropyridin-3-yl)-L-phenylalaninamide]",5.7
